Data set [1] is described as follows: Solubility (shaking flask). Type of data set: physicochemical. Conditions: phosphate buffer solution (PBS), aqueous buffer, thermodynamic from solid; PBS; 37° C. for 24 hours. The protocol:
The solubility for certain compounds were determined using the following protocol and procedure. 1) The solution, sterile water or phosphate buffer solution (PBS), was added to the test compound tube to make the final concentration 10 mg/mL. 2) The sample tube was vortexed and incubated at 37° C. for 24 hours. During the incubation period, the sample tube was vortexed several times. 3) After the incubation, vortex the tube and centrifuge the tube at 13,000 rpm for 10 mins using an Eppendorf Centrifuge Model 5415C. If the solution was still cloudy, centrifuge it for longer until a clear supernatant was achieved. 4) The supernatant was diluted to 1×, 10× and 100× in 50% ACN in water. 5) A six point standard curve was prepared separately to make the final concentrations of 1 μg/mL, 5 μg/mL, 10 μg/mL, 20 μg/mL, 40 μg/mL and 60 μg/mL. 6) Samples were quantified using an HPLC with UV detector. 7) From the three concentrations of 1×, 10× and 100× supernatant, choose the value, which was fallen into the standard curve range (1 ug/mL-60 ug/mL), as the final result. If all the results were out of the curve range, adjust using a dilution factor to make the value within the curve range.

A short description of data set [2]: in vitro. The note with it: human, Caco-2. Type of data set: in vitro ADME. The protocol: (§1) Caco-2 cells were maintained in Dulbecco's Modification of Eagle's Medium (DMEM) with sodium pyruvate, Glutmax supplemented with 1% Pen/Strep, 1% NEAA and 10% fetal bovine serum in an incubator set at 37° C., 90% humidity and 5% CO2. Caco-2 cells between passage 43 and 61 were grown to confluence over at least 21-days on 24 well PET (polyethylene-terephthalate) plates (BD Biosciences). Experiments were run using a new HBSS donor buffer from Invitrogen containing additional 10 mM HEPES, 15 mM Glucose with pH adjusted to pH 6.5. The receiver well used HBSS buffer supplemented with 1% BSA and the pH adjusted to pH 7.4. After an initial equilibration with transport buffer, TEER values were read to test membrane integrity. The experiment was started by the addition of buffers containing test compounds and 100 μl of solution is taken at 1 and 2 hrs from the receiver compartment. Removed buffer was replaced with fresh buffer and a correction was applied to all calculations for the removed material. Each compound was tested in 2 separate replicate wells for each condition. All samples were immediately collected into 400 μl 100% acetonitrile acid to precipitate protein and stabilize test compounds. Cells were dosed on the apical or basolateral side to determine forward (A to B) and reverse (B to A) permeability. Permeability through a cell free trans-well was also determined as a measure of cellular permeability through the membrane and non-specific binding. To test for non-specific binding and compound instability the total amount of drug was quantitated at the end of the experiment and compared to the material present in the original dosing solution as a percent recovery. Samples were analyzed by LC/MS/MS.
(§2) The apparent permeability, Papp, and % recovery were calculated as follows: […]
(§3) where, • dR/dt is the slope of the cumulative concentration in the receiver compartment versus time in μM/s based on receiver concentrations measured at 60 and 120 minute. • Vr and Vd is the volume in the receiver and donor compartment in cm^3, respectively. • A is the area of the cell monolayer (0.33 cm^2). • D0 and D120 is the measured donor concentration at the beginning and end of the experiment, respectively. • R120 is the receiver concentration at the end of the experiment (120 minutes).
(§4) The apparent permeability for certain compounds were determined using the above procedure.

The nature of data set [3]: Chemical stability in acidic solution (acid stability). The class given is physicochemical. Conditions: pH 4.5 chemical solution; pH 4.5, 37° C.; read-out: Acid Stability (T ½, mins @ pH 4.5).
Data set [4] has as its system Caco-2 cells. As to the kind of experiment: in vitro. The class given is in vitro ADME. The method, then: as §1, §2, §3, §4

One may read the solubility as how much of the substance goes into solution per volume. Read a high solubility as much dissolved substance. The Papp A→B is the apparent permeability from the apical to the basolateral side of a cell layer.

SMILES strings stand for the structures. Converted amounts (≈) assume the structure as drawn.

`CC(=O)OC[C@H]1O[C@@H](n2cc3c4c(ncnc42)NC(=O)C=C3N)C(C)(OC(C)=O)[C@@H]1OC(C)=O` (stereo in doubt) [Compound 117, Acetic acid 4-acetoxy-2-acetoxymethyl-5-(9-amino-7-oxo-6,7-dihydro-2,3,5,6-tetraaza-benzo[cd]azulen-2-yl)-4-methyl-tetrahydro-furan-3-yl ester] registered a solubility at 24 h in data set [1] of 510 µg/mL (≈ 1080 µM). Besides, in data set [2], the Papp A→B at 2 h is greater than 1 ×10⁻⁶ cm/s.
`CCCCCOC(=O)NC1=CC(=O)Nc2ncnc3c2c1cn3[C@@H]1O[C@H](CO)[C@@H](O)[C@@]1(C)O` [Compound 138, [2-(3,4-Dihydroxy-5-hydroxymethyl-3-methyl-tetrahydro-furan-2-yl)-7-oxo-6,7-dihydro-2H-2,3,5,6-tetraaza-benzo[cd]azulen-9-yl]-carbamic acidpentyl ester]: in data set [3], the half-life at 1 µg/mL was greater than 2 h. The compound also gave a solubility at 24 h in data set [1] of 32 µg/mL (≈ 69.3 µM). Moreover, the “Permeability Papp (A to B) × 10^−6 cm/s (Caco-2 A-B)” value in data set [4] is on record as “medium”.

The record behind these values is patent publication US20090062223A1, “AMINO TRICYCLIC-NUCLEOSIDE COMPOUNDS, COMPOSITIONS, AND METHODS OF USE” (GENELABS TECHNOLOGIES, INC., priority 2007, published 2009).
